According to ChEMBL document CHEMBL5352439, “Design, synthesis, biological evaluation and molecular docking study of novel urea-based benzamide derivatives as potent poly(ADP-ribose) polymerase-1 (PARP-1) inhibitors” (Eur J Med Chem, 2022):

Key:
[1] = tested on: MDA-MB-231; assay: Antiproliferative activity against human MDA-MB-231 cells assessed as inhibition of cell growth at 20 uM incubated for 48 hrs by MTT assay; format: functional
[2] = tested on: HCT-116; assay: Antiproliferative activity against human HCT-116 cells assessed as inhibition of cell growth at 20 uM incubated for 48 hrs by MTT assay; format: functional
[3] = tested on: HeLa; assay: Antiproliferative activity against human HeLa cells assessed as inhibition of cell growth at 20 uM incubated for 48 hrs by MTT assay; format: functional
[4] = tested on: A549; assay: Antiproliferative activity against human A549 cells assessed as inhibition of cell growth at 20 uM incubated for 48 hrs by MTT assay; format: functional
[5] = tested on: A-375; assay: Antiproliferative activity against human A-375 cells assessed as inhibition of cell growth at 20 uM incubated for 48 hrs by MTT assay; format: functional
[6] = tested on: HCT-116; assay: Antiproliferative activity against human HCT-116 cells assessed as inhibition of cell growth incubated for 48 hrs by MTT assay; format: functional, cell-based; conditions: HCT-116, 48 h
[7] = tested on: MDA-MB-231; assay: Antiproliferative activity against human MDA-MB-231 cells assessed as inhibition of cell growth incubated for 48 hrs by MTT assay; format: functional, cell-based; conditions: MDA-MB-231, 48 h
[8] = tested on: HeLa; assay: Antiproliferative activity against human HeLa cells assessed as inhibition of cell growth incubated for 48 hrs by MTT assay; format: functional, cell-based
[9] = tested on: A549; assay: Antiproliferative activity against human A549 cells assessed as inhibition of cell growth incubated for 48 hrs by MTT assay; format: functional, cell-based; conditions: A549, 48 h
[10] = tested on: A-375; assay: Antiproliferative activity against human A-375 cells assessed as inhibition of cell growth incubated for 48 hrs by MTT assay; format: functional, cell-based; conditions: A-375, 48 h
[11] = tested on: L02; assay: Antiproliferative activity against human L02 cells assessed as inhibition of cell growth […] incubated for 48 hrs by MTT assay; format: functional, cell-based; conditions: L02, 48 h
[12] = tested on: HCT-116; assay: Inhibition of cell migration in human HCT-116 cells at 25 uM incubated for 24 hrs by wound healing assay (reference value: 32.0 %); format: functional
[13] = tested on: HCT-116; assay: Inhibition of cell migration in human HCT-116 cells at 25 uM incubated for 48 hrs by wound healing assay (reference value: 42.8 %); format: functional

Row | SMILES | inhibition at 20 µM [1] [%] | inhibition at 20 µM [2] [%] | inhibition at 20 µM [3] [%] | inhibition at 20 µM [4] [%] | inhibition at 20 µM [5] [%] | IC50 [6] [µM] | IC50 [7] [µM] | IC50 [8] [µM] | IC50 [9] [µM] | IC50 [10] [µM] | IC50 [11] [µM] | inhibition at 25 µM [12] [%] | inhibition at 25 µM [13] [%]
1 | NC(=O)c1ccccc1NCc1ccccc1NC(=O)Nc1ccccc1 | 40.9 | 83.3 | < 1 | 17.7 | < 1 | – | – | – | – | – | – | – | –
2 | O=C(c1cc(Cc2n[nH]c(=O)c3ccccc23)ccc1F)N1CCN(C(=O)C2CC2)CC1 [OLAPARIB] | – | – | – | – | – | 27.3 | 24.8 | 27.7 | 31.6 | 12.7 | 60.7 | 25.8 | 33.1
3 | Cc1cccc(NC(=O)Nc2cccc(CNc3ccccc3C(N)=O)c2)c1 | 57.9 | 76.2 | 58 | 58.3 | 42.4 | 25.3 | 24.7 | 29.3 | 26.8 | 37 | – | – | –
4 | NC(=O)c1ccccc1OCc1ccccc1NC(=O)Nc1cccc(Cl)c1 | 30.2 | 72.4 | 32.7 | 35.4 | 34.1 | – | – | – | – | – | – | – | –
5 | Cc1cccc(NC(=O)Nc2cccc(COc3ccccc3C(N)=O)c2)c1 | 3.6 | 66.5 | 48.6 | 57.7 | 43.7 | – | – | – | – | – | – | – | –
6 | NC(=O)c1ccccc1OCc1cccc(NC(=O)Nc2cccc(Cl)c2)c1 | 65.2 | 83.3 | 77.6 | 85 | 63.1 | 12.3 | 21.2 | 12.7 | 12.4 | 28.5 | – | – | –
7 | NC(=O)c1ccccc1NCc1ccc(NC(=O)Nc2cccc(F)c2)cc1 | 34.6 | 27 | 27.4 | 8.3 | 36.8 | – | – | – | – | – | – | – | –
8 | NC(=O)c1ccccc1NCc1cccc(NC(=O)Nc2cccc(F)c2)c1 | 58.9 | 45.6 | 28.9 | < 1 | 17.9 | – | – | – | – | – | – | – | –
9 | NC(=O)c1ccccc1OCc1ccc(NC(=O)Nc2ccccc2)cc1 | 45.5 | 34.2 | 20.1 | 24.3 | 37.3 | – | – | – | – | – | – | – | –
10 | COc1cccc(NC(=O)Nc2cccc(CNc3ccccc3C(N)=O)c2)c1 | 59.1 | 30.2 | 27 | < 1 | 25 | – | – | – | – | – | – | – | –
11 | NC(=O)c1ccccc1NCc1cccc(NC(=O)Nc2cccc(Cl)c2)c1 | 70.9 | 84 | 44.4 | 85.3 | 75.7 | 11.3 | 16.1 | 34 | 15.6 | 25.4 | – | – | –
12 | NC(=O)c1ccccc1NCc1ccc(NC(=O)Nc2cccc(Cl)c2)cc1 | 47.3 | 63.6 | 76.5 | 52.6 | 58.3 | 13.1 | 20.5 | 12.1 | 19.9 | 25.4 | – | – | –
13 | NC(=O)c1ccccc1OCc1cccc(NC(=O)Nc2cccc(F)c2)c1 | 57.7 | 32.6 | 40.1 | 17 | 17.5 | – | – | – | – | – | – | – | –
14 | NC(=O)c1ccccc1OCc1ccc(NC(=O)Nc2cccc(Cl)c2)cc1 | 40.1 | 74 | 66.1 | 46.6 | 54.2 | 16.1 | 24.9 | 15.2 | 25.8 | 26.7 | – | – | –
15 | NC(=O)c1ccccc1OCc1ccccc1NC(=O)Nc1cccc(F)c1 | 40.4 | 18.9 | < 1 | < 1 | 22.5 | – | – | – | – | – | – | – | –
16 | COc1cccc(NC(=O)Nc2ccccc2CNc2ccccc2C(N)=O)c1 | 37.7 | 45.3 | < 1 | 13.1 | 35.4 | – | – | – | – | – | – | – | –
17 | COc1cccc(NC(=O)Nc2ccccc2COc2ccccc2C(N)=O)c1 | 37.3 | 70.2 | 26.5 | < 1 | 33.1 | – | – | – | – | – | – | – | –
18 | NC(=O)c1ccccc1NCc1ccccc1NC(=O)Nc1cccc(Cl)c1 | 36.2 | 44.3 | 7.53 | 52.6 | 30 | – | – | – | – | – | – | – | –
